Patent EP0460883B1, “Process for beta-hydroxy-alpha-amino acids” (THE UNIVERSITY OF NOTRE DAME DU LAC, priority 1990, dated 1991)

Experiments:
[1] = molecular target: T1, serine hydroxymethyltransferase (SHMT) (Oryctolagus cuniculus, UniProt P07511); experiment: Conversion of aldehyde substrates and glycine to β-hydroxy-α-amino acids by SHMT (HPLC assay); assay type: biochemical, rabbit; set-up: key: + = conversion; - = no detectable conversion
T1 construct: Three such sources are rabbit liver (LaVerne Schirch and Merle Mason, J. Biol. Chem., Vol. 237, No. 8, August 1962); from tissue; host or cells: rabbit liver
T1 sequence (P07511 2-484 limits assumed): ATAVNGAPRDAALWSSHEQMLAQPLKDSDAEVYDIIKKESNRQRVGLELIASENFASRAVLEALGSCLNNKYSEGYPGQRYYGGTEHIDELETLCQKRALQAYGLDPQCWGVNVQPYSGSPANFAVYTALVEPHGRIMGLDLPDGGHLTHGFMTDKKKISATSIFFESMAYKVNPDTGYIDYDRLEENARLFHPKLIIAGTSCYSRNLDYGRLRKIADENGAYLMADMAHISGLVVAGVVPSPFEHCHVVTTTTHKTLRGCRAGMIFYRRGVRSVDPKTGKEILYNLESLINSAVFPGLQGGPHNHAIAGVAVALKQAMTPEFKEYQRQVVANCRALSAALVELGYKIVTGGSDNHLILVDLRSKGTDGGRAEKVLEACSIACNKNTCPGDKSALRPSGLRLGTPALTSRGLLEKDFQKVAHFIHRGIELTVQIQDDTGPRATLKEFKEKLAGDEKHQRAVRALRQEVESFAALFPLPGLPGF
Description: (§1) The following Table 1 lists representative aldehyde substrates which were converted in the process to β-hydroxy-α-amino acids with SHMT from two sources. The conversion of the substrates in Table 1 was carried out by incubating the substrate and glycine with SHMT under the conditions of the process. A number of the process conditions used were common to all of the substrates and are detailed in the following paragraphs. Wherever exceptions occurred they are noted in each instance.
(§2) The incubations were carried out in 10 mM phosphate buffer, pH 7.3 containing pyridoxal 5′-phosphate at a concentration of about 80 µM. All solutions were prepared from distilled, deionized water for best results. The conversions were carried out at about 37°C in sealed, 500 µL polypropylene micro-centrifuge vials in a constant-temperature water bath. The vials were protected from light except when removed from the water bath for removal of aliquots for analysis. With all conversions an enzyme blank incubation was carried out in parallel with the SHMT incubation. The total volume of the incubation mixture was typically about 200 µL. The conditions in the blank were identical to those of the incubation mixture except for the absence of the enzyme.
(§3) The process can be monitored for production of the β-hydroxy-α-amino acid by removing aliquots from the incubation mixture from time to time and assaying the samples by HPLC separation and fluorescence detection of o-phthalaldehyde derived isoindoles of all primary amine compounds present in the mixture. The assay procedure is described by Jones, B.N.; Gilligan, J. P., J. Chrom. 1983, 266, 471; Jones, B. N. et al., J. Liq. Chrom. 1981, 4,565, and Simons, Jr., S. S. et al., J. Am Chem. Soc. 1976, 98, 7098. HPLC analysis of both the incubation mixture and the enzyme blank allowed determination of which peak(s) on the chromatograms could be assigned to enzyme products.

[2] = system: serine hydroxymethyltransferase (SHMT); experiment: as above; assay type: biochemical, corn; set-up: key: + = conversion; - = no detectable conversion
Description: as §1, §2, §3
All of the following procedures were carried out at 4°C. Washed 5-7 day old corn seedlings were homogenized in a Waring blender in 100 mM potassium monohydrogen phosphate containing 1 mM disodium ethylenediaminetetraacetate (EDTA), 1 mM dithiothreitol, and 125 µM of pyridoxal 5'-phosphate. The mix contained approximately 960 g of seedlings per liter. The homogenate was filtered through cheese cloth and the filtrate was subjected to ammonium sulfate precipitation. The protein which precipitated with 35-50% saturation in ammonium sulfate upon centrifuging at 13,800 x g for 40 min. was dissolved in 10 mM phosphate buffer, pH 7.8, containing […] pyridoxal 5'-phosphate and 1 mM EDTA. The solution was dialyzed and concentrated to 5-15 mg of protein/ml in the same buffer without EDTA present. Assay for aldolase activity of the protein consisted of a coupled system between the aldolase-catalyzed retroaldol of L-allo-threonine with the NADH (reduced form of nicotinamide adenine dinucleotide) dependent reduction of the resulting acetaldehyde by yeast alcohol dehydrogenase (ADH). Specific activity averaged 78 milliunits/mg of protein. One unit of enzyme activity is defined as that amount of enzyme required to cause a change of one optical density unit (at 340 nm) per minute at room temperature in the presence of ADH, 120 mM L-allo-threonine, 125 µM PLP, and 120 µM NADH in 100 mM phosphate buffer, pH 7.5.

[3] = incubation with glycine, 10 mM phosphate buffer pH 7.3, pyridoxal 5′-phosphate about 80 µM, about 37°C

| SMILES | Aldehyde (RCHO) Substrates for SHMT, Enzyme Rabbit Liver [1, 3] | Aldehyde (RCHO) Substrates for SHMT, Enzyme Corn Seedlings [2, 3] | Aldehyde (RCHO) Substrates for SHMT, Enzyme Rabbit Liver ([1]; as the other substrates, but VO3- (metavanadate) was present) | Aldehyde (RCHO) Substrates for SHMT, Enzyme Corn Seedlings ([2]; as the other substrates, but tetrahydrofolate was present) |
| --- | --- | --- | --- | --- |
| CCCC=O [-CH2CH2CH3, n-butanal] | + |  |  |  |
| O=Cc1ccco1 [Example 2-furyl, 2-furfural] | + | + |  |  |
| COC(=O)CCC=O [-CH2CH2CO2CH3, succinic semialdehyde methyl ester] | + | + |  |  |
| COC(=O)CCCC=O [-CH2CH2CH2CO2CH3, Glutaric semialdehyde methyl ester] | + | + |  |  |
| O=Cc1ccccc1 [Example C6H5, benzaldehyde] | + | - |  |  |
| CC=O [-CH3, acetaldehyde] | + | + |  |  |
| O=CCOCc1ccccc1 [-CH2OCH2C6H5] |  | + |  |  |
| CC(=O)C=O [-C(O)CH3, pyruvaldehyde] |  |  | + | + |
| O=CC(=O)O [-CO2H] | - | - |  |  |
| O=CCCCOC=O [-CH2CH2CH2OCHO, O-formyl 4-hydroxybutanal] | + |  |  |  |
| CCC=O [-CH2CH3, propionaldehyde] |  | + |  |  |
| O=CCCc1ccco1 | + | - |  |  |
| CC(C)OC(=O)CCC=O [-CH2CH2CO2(CH3)2, succinic semialdehyde isopropyl ester] | + |  |  |  |
